Source: US9623017B2 (priority 2014, dated 2017)

Tests used:
[1] = Solubility of the cocrystal in heptane; type: physicochemical
Source text: A drug-in-adhesive transdermal patch of the invention may be manufactured using methods known in the art. The 4:3 naltrexone: 5-methyl-2-furaldehyde cocrystal particles may be incorporated into the drug-in-adhesive layer also using known methods such as melt blending. The 4:3 naltrexone: 5-methyl-2-furaldehyde cocrystal particles may be dispersed in a liquid in which the cocrystal is not soluble or only sparingly soluble (a “non-solvent”) and then added to a solution of the other drug-in-adhesive layer components in that same liquid. Alternatively, the 4:3 naltrexone: 5-methyl-2-furaldehyde cocrystal particles may be dispersed into the solution of the drug-in-adhesive components itself. Use of a non-solvent ensures that the cocrystal retains its crystalline form while forming the drug-in-adhesive layer. For the 4:3 naltrexone: 5-methyl-2-furaldehyde cocrystal, such a liquid will generally be a non-polar organic solvent. An example of such a solvent is heptane in which the 4:3 naltrexone: 5-methyl-2-furaldehyde cocrystal has a solubility of only 0.1 mg/mL at 5° C. and of 0.2 mg/mL at 50° C. Alternatively, the 4:3 naltrexone: 5-methyl-2-furaldehyde cocrystal particles may be incorporated into the drug-in-adhesive layer also using known methods such as melt blending.

[2] = Skin flux evaluation, Franz Cell Diffusion method; type: in vitro ADME, human; conditions: film without lidocaine (n=7) vs patch with lidocaine, 32° C., 72-hour period
Description: The diffusion of lidocaine API and naltrexone from the 4:3 naltrexone: 5-methyl-2-furaldehyde cocrystal in the transdermal patch to the skin was studied using a Franz Cell Diffusion (FCD) method. In the method, transdermal patches were placed on top of heat-separated human cadaver skin. The receptor solution (0.01M phosphate buffer, pH 5.76) was analyzed for lidocaine and naltrexone content over time by HPLC using the methods discussed above. In one set of experiments the method used four transdermal patches (n=4) and was carried out at 32° C. […] In another set of experiments a similar film was prepared as above without lidocaine (Dow Medical Fluid 100-5%/Dow 7-4201-88%/NTX-Co-7%). NTX-Co transdermal flux (n=7) was measured through heat-separated human cadaver skin using Franz Cell Diffusion cells at 32° C.

[3] = Dynamic vapor sorption (DVS) analysis, Hiden IGAsorp; type: physicochemical
Description: Approximately 10 mg of sample was placed into a mesh vapor sorption balance pan and loaded into a Hiden IGAsorp by Hiden. The sample was subjected to a ramping profile from 40-90% relative humidity (RH) at 10% increments, maintaining the sample at each step until a stable weight had been achieved (99.5% step completion). After completion of the sorption cycle, the sample was dried using the same procedure to 0% RH the sample was then subsequently taken back to 40% RH using the same procedure.
A DVS analysis of the 4:3 naltrexone: 5-methyl-2-furaldehyde cocrystal was performed using Hiden IGAsorp method.

With “4:3 naltrexone: 5-methyl-2-furaldehyde cocrystal” the solubility in heptane ([1]; 5° C.) was 100 µg/mL, the solubility in heptane ([1]; 50° C.) was 200 µg/mL and the transdermal flux [2] was “lower in the absence of lidocaine”. For the same substance, the “hygroscopicity (DVS)” value ([3]; DVS kinetic analysis) was “not hygroscopic”, the “XRPD pattern of material reclaimed after DVS experiment” value ([3]; after DVS cycle, compared with FIG. 1) was “same XRPD pattern as in FIG. 1” and the “mass change (DVS)” value ([3]; ramping 40-90% RH, drying to 0% RH, back to 40% RH) was < 3%.
